Results reported in US8252520B2, “Methods and compounds for inhibiting Hec1 activity for the treatment of proliferative diseases” (Taivex Therapeutics Corporation, priority 2002, dated 2012).
Entries after “also recorded” stand apart in the source; their conditions may differ.

Experiments:
Format in all cases: cell-based
[1] = system: parental (RB-negative) Saos2 cells; assay: cell killing, trypan blue exclusion, parental Saos2 cells; details: 10 μM, 60 hours
Description: (§1) FIG. 15. Differential effect of INH1 in Rb positive and negative osteosarcoma Saos2 cells. Cells grown in log-phase were either untreated or treated with 0.08% DMSO or INH1 at the indicated concentrations for 60 hours. Surviving cells were counted by trypan blue exclusion and expressed as a percentage of the control. SR5 is a Rb reconstituted Saos-2 cell line. The values were the average of a triplicate set of experiments, with error bars representing the SEM.

HeLa cells [2] = assay: small-scale killing of dividing HeLa cells; details: dose of 20 (unit not given)
Source text: (§2) To determine whether the identified compounds would have the same effect in mammalian cells, we used HeLa cells to test the effects of these compounds in a small-scale experiment. […] These two compounds were named INH1 and INH2 (INH1, MW: 308.41; also referred to herein as IBT 13131; see FIG. 16; INH2, MW 382.49; also referred to herein as IBT 14664; see FIG. 16).

HeLa cells [3] = assay: flow cytometric (FACS) analysis of treated HeLa cells; details: 5 or 10 μM, 72 hrs
Description: FIG. 14B. Flow cytometric analysis of INH1 treated HeLa cells. Exponentially grown HeLa cells were seeded at 5×10^5 cells per 10-cm dish for 24 hrs and then treated with DMSO (control) or 5 or 10 μM of INH1 for 72 hrs. Cells were harvested and fixed in 70% ethanol for flow cytometry after staining with propidium iodide. Data represent one of three independent experiments.

HeLa cells [4] = assay: colony formation assay in HeLa cells; details: 12 days treatment, INH1 compared with INH2
Description: FIG. 12. Effects of INH1 and INH2 on colony formation of HeLa cells. Exponentially grown cells were seeded at 800 cells per 10-cm dish for 24 h and treated with indicated concentrations of INH1 (MW: 308.41; also referred to herein as IBT 13131; see FIG. 17), INH2 (MW 382.49; also referred to herein as IBT 14664; see FIG. 17), or control (DMSO less than 0.1%) for 12 days. The colonies were fixed and stained with methylene blue and counted. The values were averaged from a triplicate set of experiments, and error bars represent the SEM.
as §2

[5] = system: RB-reconstituted Saos2 cells (SR5); assay: cell killing, trypan blue exclusion, RB-reconstituted Saos2 cells; details: 10 μM, 60 hours
Description: as §1

HeLa cells [6] = assay: microscopy of H2B-GFP labeled HeLa cells (chromosome segregation); details: 10 mM of INH1 (FIG. 14A)
Description: FIG. 14A. Micrographic pictures of H2B-GFP labeled HeLa cells treated with DMSO (Mock) or 10 mM of INH1. White arrows indicate lagging chromosomes during M phase.

[7] = system: Nek2 phosphorylation of Hec1 at S165; assay: Western blot of Hec1 S165 phosphorylation (anti-A439) in treated HeLa cells; details: 20 μM, 36 hours
Description: HeLa cells (lane 1) were treated with 0.08% DMSO (lane 2), 20 μM of INH1 (lane 3), INH2 (lane 4) or nocodazole (lane 5) for 36 hours before cells were harvested for immunoblotting with anti-Hec1, mAb9G3, for total Hec1 protein or anti-A439 for the phosphorylated Hec1 at S165 (pHEC1). Nek2 phosphorylation of Hec1 is undetectable in INH1 and INH2 treated cells (lanes 3 and 4).
(§3) We performed a co-immunoprecipitation assay using cells treated with INH1 or INH2 to test whether these compounds disrupt the interaction between Hec1 and Nek2. […] Similarly, we examined whether Nek2 phosphorylation of Hec1 is diminished in the cells treated with these drugs by Western blotting with […], which recognizes specifically the phosphorylated S165 of Hec1.

[8] = target: T1, interaction between Hec1 and Nek2 (Homo sapiens, UniProt O14777); assay: co-immunoprecipitation of Nek2 with Hec1 from treated HeLa cells; details: 10 and 20 μM, 24 hours
T1 construct: endogenous in cells; host or cells: HeLa cells
T1 sequence (O14777 1-642): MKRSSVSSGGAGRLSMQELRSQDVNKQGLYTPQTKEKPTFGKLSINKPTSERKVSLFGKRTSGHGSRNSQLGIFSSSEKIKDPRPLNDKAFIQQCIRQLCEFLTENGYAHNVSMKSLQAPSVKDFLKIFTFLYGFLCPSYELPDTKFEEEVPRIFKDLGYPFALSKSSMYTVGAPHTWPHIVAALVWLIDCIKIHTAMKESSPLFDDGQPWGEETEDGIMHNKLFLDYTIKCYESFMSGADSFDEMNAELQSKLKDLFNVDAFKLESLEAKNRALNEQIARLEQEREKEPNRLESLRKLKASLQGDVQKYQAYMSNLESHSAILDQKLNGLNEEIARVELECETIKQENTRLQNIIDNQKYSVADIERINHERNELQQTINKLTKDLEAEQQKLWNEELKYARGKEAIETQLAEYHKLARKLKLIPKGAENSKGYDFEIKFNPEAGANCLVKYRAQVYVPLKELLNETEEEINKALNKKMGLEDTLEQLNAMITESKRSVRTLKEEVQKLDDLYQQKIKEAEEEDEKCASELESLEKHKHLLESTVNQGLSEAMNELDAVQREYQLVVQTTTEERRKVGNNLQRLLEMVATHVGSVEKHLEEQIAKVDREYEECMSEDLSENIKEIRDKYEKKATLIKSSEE
Description: FIG. 13A. Dissociation of Hec1 and Nek2 in INH1I-treated cells. HeLa cells were grown in log-phase and treated with 0.08% DMSO or with the indicated concentration of INH1 for 24 hours. Cells were harvested for immunoprecipitation with the anti-Hec1 antibody mAb 9G3. The immunoprecipitates were analyzed by western blot with either mAb 9G3 or anti-Nek2 antibodies. […] Fractions of lysates were taken for straight western blot with anti-Rad50 antibodies as a loading control.
as §3

| Molecule | cells killed [1] | activity in killing dividing cells (HeLa cells [2]) | cell death by FACS analysis (HeLa cells [3]) | killing activity by colony formation (HeLa cells [4]) | cells killed [5] [%] | chromosome segregation phenotype (HeLa cells [6]) | Nek2 phosphorylation of Hec1 (S165) [7] | Nek2 co-precipitated with anti-Hec1 antibodies [8] | Nek2 co-precipitated with anti-Hec1 antibodies ([8]; listed as INH 1) |
| --- | --- | --- | --- | --- | --- | --- | --- | --- | --- |
| Cc1ccc(-c2csc(NC(=O)c3ccccc3)n2)c(C)c1 [INH1] | more than 50% | significant activity | led to cell death | significant higher killing activity | < 5 | generated chromosome missegregations | abolished; also recorded: undetectable | very little or no Nek2 protein | Nek2 failed to be co-immunoprecipitated with Hec1 |
| INH2 | – | significant activity | – | – | – | – | abolished; also recorded: undetectable | – | – |
